Tests used:
[1] = target: Glycogen synthase kinase-3 alpha/beta (Sus scrofa); assay: Kinase activities were assayed in buffers containing substrate, enzyme, and inhibitor at 30 °C in the presence of 15 uM ATP/ [gamma-32P] ATP. 32P incorporation was measured with a scintillation counter. The IC50 is the inhibitor concentration, which inhibits 50% of kinase activity that catalyzes the transfer of the terminal phosphate from 32P l
[2] = target: T1, Cyclin-dependent kinase 5 activator 1 [99-307] (Homo sapiens, UniProt Q00535); assay: Kinase Inhibition Assay; settings: 30 °C
T1 construct: 99-307
T1 sequence (Q15078 99-307): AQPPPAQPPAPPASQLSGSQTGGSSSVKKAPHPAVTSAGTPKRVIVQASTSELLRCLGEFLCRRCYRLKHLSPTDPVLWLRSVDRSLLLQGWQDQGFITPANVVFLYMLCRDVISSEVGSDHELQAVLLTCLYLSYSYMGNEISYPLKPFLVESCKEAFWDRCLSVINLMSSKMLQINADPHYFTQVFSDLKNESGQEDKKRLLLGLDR
T1 sequence (Q00535 whole entry): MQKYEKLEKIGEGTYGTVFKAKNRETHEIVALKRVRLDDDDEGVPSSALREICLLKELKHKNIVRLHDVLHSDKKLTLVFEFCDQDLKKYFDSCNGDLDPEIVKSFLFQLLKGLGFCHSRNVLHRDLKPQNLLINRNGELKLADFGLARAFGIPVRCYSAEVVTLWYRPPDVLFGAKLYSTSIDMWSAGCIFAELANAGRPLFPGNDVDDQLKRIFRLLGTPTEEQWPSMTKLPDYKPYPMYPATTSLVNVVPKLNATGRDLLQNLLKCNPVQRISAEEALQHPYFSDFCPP

[3] = target: Cyclin-dependent kinase 1/G2/mitotic-specific cyclin-B (Marthasterias glacialis, UniProt P15206+Q9DGD3); assay: Kinase Inhibition Assay; settings: 30 °C
Sequence of Cyclin-dependent kinase 1/G2/mitotic-specific cyclin-B (Q9DGD3 whole entry): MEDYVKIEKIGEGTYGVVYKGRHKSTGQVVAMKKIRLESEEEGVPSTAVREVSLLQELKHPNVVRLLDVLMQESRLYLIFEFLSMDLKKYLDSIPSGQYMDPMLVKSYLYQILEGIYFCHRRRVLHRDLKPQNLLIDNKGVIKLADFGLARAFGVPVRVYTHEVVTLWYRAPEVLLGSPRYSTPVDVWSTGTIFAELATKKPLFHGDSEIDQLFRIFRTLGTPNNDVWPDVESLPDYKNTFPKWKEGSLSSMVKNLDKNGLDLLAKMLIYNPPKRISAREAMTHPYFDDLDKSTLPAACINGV
Sequence of Cyclin-dependent kinase 1/G2/mitotic-specific cyclin-B (P15206 whole entry): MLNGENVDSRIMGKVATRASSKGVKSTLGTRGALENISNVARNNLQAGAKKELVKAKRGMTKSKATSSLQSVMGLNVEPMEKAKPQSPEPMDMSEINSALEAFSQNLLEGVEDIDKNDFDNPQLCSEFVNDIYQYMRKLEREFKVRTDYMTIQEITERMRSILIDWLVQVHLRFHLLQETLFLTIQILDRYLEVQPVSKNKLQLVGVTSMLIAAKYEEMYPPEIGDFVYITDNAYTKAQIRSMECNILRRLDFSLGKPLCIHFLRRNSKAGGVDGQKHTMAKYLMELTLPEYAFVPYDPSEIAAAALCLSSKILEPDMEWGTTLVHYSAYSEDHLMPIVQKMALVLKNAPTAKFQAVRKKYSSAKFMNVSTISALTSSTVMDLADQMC

SMILES	IC50 [1]	IC50 [2]	IC50 ([3]; pH 7.2)	IC50 [3]
CN1C(=O)/C(=C2\Nc3ccccc3C2=O)c2ccc(Br)cc21 [(2 Z)-6-Bromo-1-methylindirubin]	> 100000 nM	> 100000 nM	> 100000 nM	
CC(=O)ON=C1C(=C2C(=O)Nc3cc(I)ccc32)Nc2ccccc21 [(2 Z,3 E)-6-Iodoindirubin-3-acetoxime]	13 nM	1300 nM		2200 nM
O=Nc1c(C2C(=O)Nc3cc(Br)ccc32)[nH]c2cc(Br)ccc12 (stereo not drawn) [6-bromo-3-[(2Z,3E)-6-bromo-3-(hydroxyimino)-2,3-dihydro-1H-indol-2-ylidene]-2,3-dihydro-1H-indol-2-one]	120 nM	1300 nM	17000 nM	
O=C1Nc2cc(Br)ccc2/C1=C1/Nc2ccccc2C1=O [6-bromo-3-[(2Z)-3-oxo-2,3-dihydro-1H-indol-2-ylidene]-2,3-dihydro-1H-indol-2-one]		53000 nM		
O=C1Nc2cccc(Cl)c2/C1=C1/Nc2ccccc2C1=O [4-chloro-3-[(2Z)-3-oxo-2,3-dihydro-1H-indol-2-ylidene]-2,3-dihydro-1H-indol-2-one]	> 100000 nM	10000 nM		10000 nM
CO/N=C1/C(=C2/C(=O)Nc3cc(Br)ccc32)Nc2ccccc21 [(2 Z,3 E)-6-Bromoindirubin-3-methoxime]	30 nM	2200 nM	3700 nM	
C=Cc1ccc2c(c1)NC(=O)C2=C1Nc2ccccc2C1=NOC(C)=O [[(3E)-2-[(3Z)-6-ethenyl-2-oxo-2,3-dihydro-1H-indol-3-ylidene]-2,3-dihydro-1H-indol-3-ylidene]amino acetate]	65 nM	400 nM		1600 nM
O=C1Nc2cc(Cl)ccc2/C1=C1/Nc2ccccc2C1=O [6-chloro-3-[(2Z)-3-oxo-2,3-dihydro-1H-indol-2-ylidene]-2,3-dihydro-1H-indol-2-one]	140 nM	> 100000 nM	> 100000 nM	
CC(=O)ON=C1C(=C2C(=O)Nc3cc(F)ccc32)Nc2ccccc21 [(2 Z,3 E)-6-Fluoroindirubin-3-acetoxime]		300 nM		
CN1C(=O)/C(=C2\Nc3ccccc3C2=O)c2ccccc21 [1-methyl-3-[(2Z)-3-oxo-2,3-dihydro-1H-indol-2-ylidene]-2,3-dihydro-1H-indol-2-one]	> 100000 nM	> 100000 nM		> 100000 nM
CN1C(=O)C(c2[nH]c3ccccc3c2N=O)c2ccccc21 (stereo not drawn) [3-[(2Z,3E)-3-(hydroxyimino)-2,3-dihydro-1H-indol-2-ylidene]-1-methyl-2,3-dihydro-1H-indol-2-one]	> 100000 nM	> 100000 nM		73000 nM
O=Nc1c(C2C(=O)Nc3cc(F)ccc32)[nH]c2ccccc12 (stereo not drawn) [6-fluoro-3-[(2Z,3E)-3-(hydroxyimino)-2,3-dihydro-1H-indol-2-ylidene]-2,3-dihydro-1H-indol-2-one]	130 nM	150 nM		320 nM
O=C1Nc2cc(Br)c([N+](=O)[O-])cc2[C+]1c1[nH]c2ccccc2c1[O-] [6-Bromo-5-nitroindirubin]	100 nM	> 100000 nM		> 100000 nM
C=Cc1ccc2c(c1)NC(=O)/C2=C1\Nc2ccccc2C1=O [6-vinylindirubin]	240 nM	2400 nM		4200 nM
Cc1cc2c(cc1Br)NC(=O)C2c1[nH]c2ccccc2c1N=O (stereo not drawn) [6-bromo-3-[(2Z,3E)-3-(hydroxyimino)-2,3-dihydro-1H-indol-2-ylidene]-5-methyl-2,3-dihydro-1H-indol-2-one]		130 nM		
O=Nc1c(C2C(=O)Nc3cc(Br)c([N+](=O)[O-])cc32)[nH]c2ccccc12 (stereo not drawn) [6-bromo-3-[(2Z,3E)-3-(hydroxyimino)-2,3-dihydro-1H-indol-2-ylidene]-5-nitro-2,3-dihydro-1H-indol-2-one]		150 nM		
O=C1Nc2cc(Br)ccc2/C1=C1/Nc2cc(Br)ccc2C1=O [(2 Z)-6,6 -Dibromoindirubin]	4500 nM	> 100000 nM	> 100000 nM	
O=C1Nc2cc(I)ccc2/C1=C1/Nc2ccccc2C1=O [6-iodoindirubin]	55 nM	5300 nM	1600 nM	
O=C1Nc2cc(F)ccc2/C1=C1/Nc2ccccc2C1=O [6-fluoroindirubin]		1000 nM		
CC(=O)ON=C1C(=C2C(=O)Nc3cc(Cl)ccc32)Nc2ccccc21 [6-chloroindirubin-3-acetoxime]	17 nM	200 nM	30000 nM	
Cc1cc2c(cc1Br)NC(=O)/C2=C1\Nc2ccccc2C1=O [6-bromo-5-methylindirubin]	25 nM	60000 nM		30000 nM
O=C1Nc2cc(Cl)c(Cl)cc2/C1=C1/Nc2ccccc2C1=O [(2 Z)-5,6-Dichloroindirubin]	30 nM	60000 nM		45000 nM
CO/N=C1/C(=C2/C(=O)Nc3ccccc32)Nc2ccccc21 [3-[(2Z,3E)-3-(methoxyimino)-2,3-dihydro-1H-indol-2-ylidene]-2,3-dihydro-1H-indol-2-one]		400 nM		
C=Cc1ccc2c(c1)NC(=O)C2c1[nH]c2ccccc2c1N=O (stereo not drawn) [6-vinylindirubin-3-oxime]	60 nM	420 nM		1200 nM
O=Nc1c(C2C(=O)Nc3cc(Cl)ccc32)[nH]c2ccccc12 (stereo not drawn) [6-chloro-3-[(2Z,3E)-3-(hydroxyimino)-2,3-dihydro-1H-indol-2-ylidene]-2,3-dihydro-1H-indol-2-one]	20 nM	100 nM	650 nM	
CC(=O)ON=C1C(=C2C(=O)Nc3ccccc32)Nc2ccccc21 [[(3E)-2-[(3Z)-2-oxo-2,3-dihydro-1H-indol-3-ylidene]-2,3-dihydro-1H-indol-3-ylidene]amino acetate]		700 nM		
O=Nc1c(C2C(=O)Nc3cc(I)ccc32)[nH]c2ccccc12 (stereo not drawn) [6-iodoindirubin-3-oxime]		300 nM		
CN1C(=O)C(c2[nH]c3ccccc3c2N=O)c2ccc(Br)cc21 (stereo not drawn) [(2 Z,3 E)-6-Bromo-1-methylindirubin-3-oxime]	> 100000 nM	> 100000 nM	92000 nM	

Reference: BindingDB's records for doi:10.1021/jm031016d (University of Athens, 2004)
